Results published in the supplement of paper PMC10307832.

How the values were obtained:
Experiment in all cases: relative viability (nuclei count vs DMSO), 5 days (fraction); higher = more cells survive
Erlotinib + Luminespib = compound: C#Cc1cccc(Nc2ncnc3cc(OCCOC)c(OCCOC)cc23)c1 [Erlotinib] + CCNC(=O)c1noc(-c2cc(C(C)C)c(O)cc2O)c1-c1ccc(CN2CCOCC2)cc1 [Luminespib] (partner 0.01 µM)
Outline: (§1)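 The day after seeding in 1536-well plates, lung cancer cell lines were treated by pin tool with a single drug, or with a fixed anchor-drug dose together with five library-drug doses (not always all listed) in √10 steps. After 5 days, a combined fix-and-stain solution (final 0.05% Triton X-100, 1% formaldehyde, 1 ug/ml Hoechst) was added. Nuclei counted on 4× images gave relative viability as treated counts over vehicle counts, reported as the median of duplicate plates.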

Erlotinib + Foretinib = compound: C#Cc1cccc(Nc2ncnc3cc(OCCOC)c(OCCOC)cc23)c1 [Erlotinib] + COc1cc2c(Oc3ccc(NC(=O)C4(C(=O)Nc5ccc(F)cc5)CC4)cc3F)ccnc2cc1OCCCN1CCOCC1 [Foretinib] (partner 0.25 µM)
Outline: as §1

Erlotinib + Alpelisib = compound: C#Cc1cccc(Nc2ncnc3cc(OCCOC)c(OCCOC)cc23)c1 [Erlotinib] + Cc1nc(NC(=O)N2CCC[C@H]2C(N)=O)sc1-c1ccnc(C(C)(C)C(F)(F)F)c1 [Alpelisib] (partner 2 µM)
Outline: as §1

AT9283 + Trametinib = compound: O=C(Nc1c[nH]nc1-c1nc2ccc(CN3CCOCC3)cc2[nH]1)NC1CC1 [AT9283] + CC(=O)Nc1cccc(-n2c(=O)n(C3CC3)c(=O)c3c(Nc4ccc(I)cc4F)n(C)c(=O)c(C)c32)c1 [Trametinib] (partner 0.02 µM)
Outline: as §1

AT9283 + Alpelisib = compound: O=C(Nc1c[nH]nc1-c1nc2ccc(CN3CCOCC3)cc2[nH]1)NC1CC1 [AT9283] + Cc1nc(NC(=O)N2CCC[C@H]2C(N)=O)sc1-c1ccnc(C(C)(C)C(F)(F)F)c1 [Alpelisib] (partner 2 µM)
Outline: as §1

Cell Line	relative viability (Erlotinib + Luminespib; first compound 0.02 µM)	relative viability (Erlotinib + Luminespib; first compound 0.2 µM)	relative viability (Erlotinib + Luminespib; first compound 0.6325 µM)	relative viability (Erlotinib + Luminespib; first compound 2 µM)	relative viability (Erlotinib + Foretinib; first compound 0.02 µM)	relative viability (Erlotinib + Foretinib; first compound 0.2 µM)	relative viability (Erlotinib + Foretinib; first compound 2 µM)	relative viability (Erlotinib + Alpelisib; first compound 0.02 µM)	relative viability (Erlotinib + Alpelisib; first compound 0.2 µM)	relative viability (Erlotinib + Alpelisib; first compound 0.6325 µM)	relative viability (Erlotinib + Alpelisib; first compound 2 µM)	relative viability (AT9283 + Trametinib; first compound 0.003 µM)	relative viability (AT9283 + Trametinib; first compound 0.03 µM)	relative viability (AT9283 + Trametinib; first compound 0.09487 µM)	relative viability (AT9283 + Trametinib; first compound 0.3 µM)	relative viability (AT9283 + Alpelisib; first compound 0.003 µM)	relative viability (AT9283 + Alpelisib; first compound 0.03 µM)	relative viability (AT9283 + Alpelisib; first compound 0.09487 µM)	relative viability (AT9283 + Alpelisib; first compound 0.3 µM)	relative viability (Erlotinib + Foretinib; first compound 0.6325 µM)
LXF-289	0.813	0.622	0.707	0.634	0.924	0.937	0.874	1.08	1	0.976	0.913	0.695	0.686	0.254	0.145	0.964	1.01	0.132	0.105	
NCI-H23	0.218		0.202	0.217	0.909		0.631	0.763	0.593	0.816	0.634	0.377	0.291	0.281	0.19	0.707	0.668	0.396	0.168	1.24
NCI-H322M	0.806	0.595	0.528	0.443	0.925	0.619	0.45	0.693	0.745	0.589	0.335	0.486	0.49	0.407	0.405	0.846	0.906	0.544	0.396	0.565
NCI-H358	0.262	0.225	0.31	0.12	0.656	0.408	0.176	0.885	0.693	0.474	0.358	0.144	0.105	0.081	0.0743	0.901	0.171	0.163	0.152	0.39
NCI-H460	0.03	0.0268	0.033	0.0356	0.973	1.02	0.968	0.585	0.415	0.492	0.399	0.143	0.215	0.0758	0.0307	0.516	0.43	0.0573	0.017	
NCI-H520	0.242	0.23	0.253	0.248	0.803	0.926	0.745	0.932	0.934	1.17		0.719	0.276	0.291	0.149	1.01	0.338	0.274	0.239	0.749
NCI-H596	1.07	0.848	0.893	0.878	0.759	0.847	0.758	0.444	0.456	0.492	0.376	0.76	0.868	0.566	0.635	0.508	0.509	0.531	0.496	0.995
NCI-H647	0.218	0.119	0.142	0.0816	1.13	1.04	1.04	0.955	1.18		1.02	0.46	0.47	0.138	0.173	1.11	0.355	0.128	0.124	1.32
NCI-H650	0.822	0.783	0.679	0.794	1.03	1.02	0.924	1.22	1.25	1.11	1.06	0.976	0.906	0.394	0.179	1	0.951	0.252	0.162	1.19
NCI-H661	0.903	0.933	0.882	0.736	1	0.921	0.705	0.545	0.556	0.782	0.426	0.571	0.441	0.423	0.323	0.627	0.427	0.329	0.36	1.1
NCI-H727	0.345		0.3	0.191	0.847	0.75	0.726	0.612	0.48	0.459	0.463	0.378	0.418	0.359	0.347	0.669	0.434	0.313	0.235	0.813
NCI-H838	0.321	0.313	0.427	0.303	1.14	0.992		1	0.962	1.09	0.855	0.543	0.275	0.16	0.144	1.06	0.367	0.262	0.269	1.09
NCI-H1355		0.597	0.658	0.557	1.01	0.821	0.781		0.742	0.685	0.518	0.446	0.427	0.354	0.179	0.855	0.898	0.443	0.182	0.877
NCI-H1395	0.919	0.613	0.676	0.671	1.04	0.906	0.975	1.34	1.08	1.08	1.07	1.07	0.865	0.444	0.341	1	0.804	0.409	0.431	1.13
NCI-H1437	1.15	1.18	1.1	1.03	1.31	1.23	1.2	0.924	0.965		0.854	0.547	0.568	0.302	0.14	0.997	0.88	0.571	0.155	1.24
NCI-H1651	0.883	0.837	0.817	0.746	0.704	0.753	0.753	1.02	0.873	1.05	0.944	0.838	0.875	0.819	0.39	1.01	0.921	0.689	0.399	

Cell Line	relative viability (Erlotinib + Luminespib; first compound 0.02 µM)	relative viability (Erlotinib + Luminespib; first compound 0.2 µM)	relative viability (Erlotinib + Luminespib; first compound 0.6325 µM)	relative viability (Erlotinib + Luminespib; first compound 2 µM)	relative viability (Erlotinib + Foretinib; first compound 0.02 µM)	relative viability (Erlotinib + Foretinib; first compound 0.2 µM)	relative viability (Erlotinib + Foretinib; first compound 2 µM)	relative viability (Erlotinib + Alpelisib; first compound 0.02 µM)	relative viability (Erlotinib + Alpelisib; first compound 0.2 µM)	relative viability (Erlotinib + Alpelisib; first compound 0.6325 µM)	relative viability (Erlotinib + Alpelisib; first compound 2 µM)	relative viability (AT9283 + Trametinib; first compound 0.003 µM)	relative viability (AT9283 + Trametinib; first compound 0.03 µM)	relative viability (AT9283 + Trametinib; first compound 0.09487 µM)	relative viability (AT9283 + Trametinib; first compound 0.3 µM)	relative viability (AT9283 + Alpelisib; first compound 0.003 µM)	relative viability (AT9283 + Alpelisib; first compound 0.03 µM)	relative viability (AT9283 + Alpelisib; first compound 0.09487 µM)	relative viability (AT9283 + Alpelisib; first compound 0.3 µM)	relative viability (Erlotinib + Foretinib; first compound 0.6325 µM)
NCI-H1666	0.969	0.941	1.01	0.713	1.06	0.86	0.767	0.901	0.631	0.504	0.348	0.852	0.721	0.637	0.474	1.04	0.736	0.363	0.291	0.802
NCI-H1734	0.202	0.212	0.194	0.197	0.789		0.768	0.704	0.61	0.84	0.602	0.7	0.406	0.267	0.271	0.696	0.497	0.283	0.292	0.921
NCI-H1755	0.412	0.432	0.536	0.413	0.942	0.936	0.907	1.01	0.933	0.937	0.872	0.8	0.815	0.637	0.557	0.996	0.874	0.35	0.381	0.916
NCI-H1793	0.167	0.19	0.169	0.125	0.575	0.421	0.408	0.747	0.549	0.516	0.579	0.389	0.342	0.292	0.259	0.642	0.871	0.363	0.254	0.541
NCI-H1915	0.819	0.777	0.908	0.725	1.08	1.2	1.1	1.09		1.09		0.3	0.31	0.225	0.132	1.01	1.06	0.24	0.222	1.12
NCI-H1944	0.813	0.471	0.609	0.434	0.833	0.54	0.56	0.708	0.562	0.595	0.504	0.408	0.307	0.196	0.206	0.792	0.621	0.255	0.275	0.579
NCI-H1975	0.222	0.157	0.169	0.306	0.951	1.02	0.71	0.717	0.696	0.535	0.454	0.323	0.777	0.337	0.234	0.637	0.624	0.5	0.247	
NCI-H1993	0.812	0.611	0.566	0.508	0.772	0.736	0.716	0.73	0.644	0.647	0.739	0.541	0.529	0.445	0.433	0.789	0.612	0.552	0.515	0.578
NCI-H2009	1.04	1.03	1.09	0.944	1.28	1.24	1.23	1.24	1.16	1.17	1.13	0.346	0.267	0.17	0.0856	1.13	1.05	0.734	0.401	1.36
NCI-H2023	0.721	0.72	0.81	0.629	0.754	0.607	0.406	0.64	0.525	0.453	0.401	0.572	0.604	0.227	0.119	0.634	0.501	0.34	0.131	0.589
NCI-H2085	0.412	0.352	0.308	0.339	1.14	0.739	0.559	0.935	0.81	0.673	0.645	0.532	0.453	0.395	0.318	0.946	0.894	0.615	0.411	0.649
NCI-H2087	0.253	0.15	0.224	0.152	1.12	1.18	0.964	1.3		1.09	1.04	0.176	0.096	0.124	0.107	1.22	0.658	0.259	0.165	1.12
NCI-H2126	0.882	0.648	0.589	0.635	1.29	1.05	0.764	0.781	0.644	0.537	0.379	0.573	0.566	0.38	0.293	0.722	0.788	0.501	0.323	0.947
NCI-H2170	0.685	0.413	0.743	0.398	1.04	1.05	0.656	0.895	0.745	0.578	0.308	0.958	0.747	0.268	0.159	0.806	0.638	0.205	0.217	0.935
NCI-H2228	0.151	0.131	0.149	0.121	0.897	0.885	0.815	0.906	0.858	0.716	0.642	0.422	0.518	0.239	0.207	0.831	0.676	0.176	0.136	0.946
NCI-H2347	1.25	0.557	0.441	0.902	0.877	0.841	0.61	1.33	0.966	1.13	0.893	0.292	0.269	0.275	0.262	1.16	1.04	0.606	0.451	1.08
